This is an account of results in US12486267B2, “Imidazo[1,2-A]pyridine and [1,2,4]triazolo[1,5-A]pyridine derivatives as TLR9 inhibitors for the treatment of fibrosis” (BRISTOL-MYERS SQUIBB COMPANY, priority 2020, dated 2025).

Common to all, as to type: cell-based
In one experiment the target is T1, human TLR9 (Homo sapiens, UniProt Q9NR96).
T1 sequence (Q9NR96 26-1032): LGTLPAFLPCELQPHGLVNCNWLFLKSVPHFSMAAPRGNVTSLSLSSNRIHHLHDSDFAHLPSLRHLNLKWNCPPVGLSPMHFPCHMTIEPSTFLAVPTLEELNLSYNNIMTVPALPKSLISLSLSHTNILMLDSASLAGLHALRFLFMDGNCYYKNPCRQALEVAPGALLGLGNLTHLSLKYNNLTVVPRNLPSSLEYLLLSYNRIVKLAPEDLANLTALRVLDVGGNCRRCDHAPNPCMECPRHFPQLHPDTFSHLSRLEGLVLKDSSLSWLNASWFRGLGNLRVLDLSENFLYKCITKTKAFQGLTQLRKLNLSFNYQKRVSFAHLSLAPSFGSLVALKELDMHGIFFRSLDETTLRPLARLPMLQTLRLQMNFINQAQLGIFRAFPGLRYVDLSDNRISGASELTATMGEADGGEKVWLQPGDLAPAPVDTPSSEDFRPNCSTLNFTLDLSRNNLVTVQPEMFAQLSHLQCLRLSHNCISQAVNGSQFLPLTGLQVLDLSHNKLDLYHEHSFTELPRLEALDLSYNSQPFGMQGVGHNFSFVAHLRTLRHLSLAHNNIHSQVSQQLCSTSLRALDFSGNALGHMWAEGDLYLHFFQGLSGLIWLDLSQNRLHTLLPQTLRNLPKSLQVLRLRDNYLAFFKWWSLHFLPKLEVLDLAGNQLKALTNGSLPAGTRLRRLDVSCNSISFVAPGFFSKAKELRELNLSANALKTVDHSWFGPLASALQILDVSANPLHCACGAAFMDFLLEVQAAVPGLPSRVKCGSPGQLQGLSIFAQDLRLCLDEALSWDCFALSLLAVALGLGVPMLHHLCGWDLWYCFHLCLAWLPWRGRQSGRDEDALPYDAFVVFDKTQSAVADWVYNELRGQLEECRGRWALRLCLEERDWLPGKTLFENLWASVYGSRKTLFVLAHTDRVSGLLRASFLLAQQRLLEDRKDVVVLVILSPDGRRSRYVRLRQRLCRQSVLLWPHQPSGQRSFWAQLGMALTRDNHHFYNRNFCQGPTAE
The experiment can be described thus: TLR9 inhibition reporter assay (HEK-Blue cells, SEAP reporter). Conditions: HEK-Blue cells overexpressing human TLR9; stimulated with ODN2006 5 nM; 22 hour incubation; SEAP readout. In short, it runs like this: (§1)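 HEK-Blue cells with NF-κB/AP-1-driven SEAP pre-treated 30 min with compound (0.05 nM–50 μM), then stimulated with gardiquimod 7.5 μM (TLR7), R848 15.9 μM (TLR8) or ODN2006 5 nM (TLR9). SEAP detected after 22 h at 37 °C; percent inhibition relative to agonist-plus-DMSO and known-inhibitor wells.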

Another experiment addresses T2, human TLR7 (Homo sapiens, UniProt Q9NYK1).
T2 sequence (Q9NYK1 27-1049): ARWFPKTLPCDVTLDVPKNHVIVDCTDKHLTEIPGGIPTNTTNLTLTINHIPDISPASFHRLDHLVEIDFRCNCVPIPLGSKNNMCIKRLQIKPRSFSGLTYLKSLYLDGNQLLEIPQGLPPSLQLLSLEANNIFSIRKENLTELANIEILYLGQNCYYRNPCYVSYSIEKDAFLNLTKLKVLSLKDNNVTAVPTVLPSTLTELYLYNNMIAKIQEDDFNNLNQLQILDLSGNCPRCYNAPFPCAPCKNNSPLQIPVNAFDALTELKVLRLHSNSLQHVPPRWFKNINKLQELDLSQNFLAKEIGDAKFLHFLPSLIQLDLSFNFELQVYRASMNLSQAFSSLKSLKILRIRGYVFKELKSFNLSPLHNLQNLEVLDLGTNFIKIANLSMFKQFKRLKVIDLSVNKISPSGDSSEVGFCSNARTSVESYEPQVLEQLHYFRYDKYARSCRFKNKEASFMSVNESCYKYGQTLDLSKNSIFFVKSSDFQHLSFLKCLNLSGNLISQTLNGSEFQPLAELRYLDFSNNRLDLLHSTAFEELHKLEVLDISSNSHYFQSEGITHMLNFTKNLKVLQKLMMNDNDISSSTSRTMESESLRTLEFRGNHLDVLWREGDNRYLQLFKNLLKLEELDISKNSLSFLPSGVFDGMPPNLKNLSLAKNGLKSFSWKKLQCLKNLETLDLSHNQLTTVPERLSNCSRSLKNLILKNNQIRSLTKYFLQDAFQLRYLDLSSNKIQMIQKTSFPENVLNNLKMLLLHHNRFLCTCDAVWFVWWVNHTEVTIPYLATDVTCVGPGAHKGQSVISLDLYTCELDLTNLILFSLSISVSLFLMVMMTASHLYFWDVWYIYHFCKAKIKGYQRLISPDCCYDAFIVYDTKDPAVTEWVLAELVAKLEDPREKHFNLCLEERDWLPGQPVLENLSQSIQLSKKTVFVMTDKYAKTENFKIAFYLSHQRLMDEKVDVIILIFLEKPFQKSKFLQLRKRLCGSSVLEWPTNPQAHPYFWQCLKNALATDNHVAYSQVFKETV
The experiment can be described thus: TLR7 inhibition reporter assay (HEK-Blue cells, SEAP reporter). To be noted: HEK-Blue cells overexpressing human TLR7; stimulated with gardiquimod 7.5 μM; 22 hour incubation; SEAP readout. In short, it runs like this:
as §1
Background: A reporter such as luciferase makes a cellular process visible.

A further experiment concerns the target T3, human TLR8 (Homo sapiens, UniProt Q9NR97).
T3 sequence (Q9NR97 27-1041): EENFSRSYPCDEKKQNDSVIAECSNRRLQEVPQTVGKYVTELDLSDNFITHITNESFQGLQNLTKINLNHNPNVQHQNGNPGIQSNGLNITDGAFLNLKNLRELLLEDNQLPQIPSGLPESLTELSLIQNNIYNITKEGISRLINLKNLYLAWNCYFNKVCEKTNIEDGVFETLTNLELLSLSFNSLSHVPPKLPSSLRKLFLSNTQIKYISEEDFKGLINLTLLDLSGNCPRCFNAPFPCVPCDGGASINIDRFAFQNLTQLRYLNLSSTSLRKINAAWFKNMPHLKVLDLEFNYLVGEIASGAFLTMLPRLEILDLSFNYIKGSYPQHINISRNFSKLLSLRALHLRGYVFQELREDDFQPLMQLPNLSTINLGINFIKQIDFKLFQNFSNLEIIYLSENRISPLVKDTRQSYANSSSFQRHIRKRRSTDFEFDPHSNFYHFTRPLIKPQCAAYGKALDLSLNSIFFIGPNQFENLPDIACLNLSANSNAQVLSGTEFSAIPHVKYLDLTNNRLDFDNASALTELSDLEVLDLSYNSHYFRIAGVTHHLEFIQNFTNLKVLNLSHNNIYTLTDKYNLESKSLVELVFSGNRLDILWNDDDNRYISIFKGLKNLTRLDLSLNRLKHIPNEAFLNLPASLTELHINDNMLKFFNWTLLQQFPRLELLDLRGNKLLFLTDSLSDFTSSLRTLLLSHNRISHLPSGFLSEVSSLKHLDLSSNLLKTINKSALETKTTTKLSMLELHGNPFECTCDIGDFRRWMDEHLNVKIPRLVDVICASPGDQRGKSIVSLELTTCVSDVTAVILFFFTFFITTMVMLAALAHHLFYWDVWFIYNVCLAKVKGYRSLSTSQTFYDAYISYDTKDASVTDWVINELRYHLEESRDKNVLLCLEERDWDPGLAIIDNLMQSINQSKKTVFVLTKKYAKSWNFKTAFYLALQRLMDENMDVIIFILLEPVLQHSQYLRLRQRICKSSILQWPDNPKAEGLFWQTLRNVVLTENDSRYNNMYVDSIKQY
Kind of experiment: TLR8 inhibition reporter assay (HEK-Blue cells, SEAP reporter). Conditions: HEK-Blue cells overexpressing human TLR8; stimulated with R848 15.9 μM; 22 hour incubation; SEAP readout. In a few lines: as §1

Structures are written as SMILES. A value given as a limit tells only on which side of the number the result lay.

For `CS(=O)(=O)c1ccc(-c2cn3cc(C4CCN(C5CC6CCC(C5)N6C5CCOCC5)CC4)cc(F)c3n2)cc1` (single isomer, unassigned) [Example 121, 8-fluoro-2-(4-(methylsulfonyl)phenyl)-6-(1-(8-(tetrahydro-2H-pyran-4-yl)-8-azabicyclo[3.2.1]octan-3-yl)piperidin-4-yl) imidazo[1,2-a]pyridine], the IC50 at human TLR9 is 0.011 µM; on human TLR7, 3.4 µM; against human TLR8, > 50 µM.
Regarding `CS(=O)(=O)c1ccc(-c2cn3cc(C4CCN(C5CC6CCC(C5)N6C5CCOCC5)CC4)cc(F)c3n2)cc1` (single isomer, unassigned) [Example 122, 8-fluoro-2-(4-(methylsulfonyl)phenyl)-6-(1-(8-(tetrahydro-2H-pyran-4-yl)-8-azabicyclo[3.2.1]octan-3-yl)piperidin-4-yl) imidazo[1,2-a]pyridine], the IC50 came to 0.0078 µM against human TLR9, 1.3 µM on human TLR7 and 27 µM on human TLR8.
On to `CC(C)CN1CCCC(N2CCC(c3cc(F)c4nc(-c5ccc(S(C)(=O)=O)cc5)cn4c3)CC2)CC1` (single isomer, unassigned) [Example 125, 8-fluoro-6-(1-(1-isobutylazepan-4-yl)piperidin-4-yl)-2-(4-(methylsulfonyl)phenyl) imidazo[1,2-a]pyridine], for which the IC50 was found to be 0.02 µM at human TLR9, 12.7 µM on human TLR7 and 47.4 µM on human TLR8.
Turning to `CC(C)CN1CCCC(N2CCC(c3cc(F)c4nc(-c5ccc(S(C)(=O)=O)cc5)cn4c3)CC2)CC1` (single isomer, unassigned) [Example 126, 8-fluoro-6-(1-(1-isobutylazepan-4-yl)piperidin-4-yl)-2-(4-(methylsulfonyl)phenyl) imidazo[1,2-a]pyridine], the IC50 came out at 0.0078 µM against human TLR9, 7.4 µM on human TLR7 and 46.7 µM at human TLR8.
For `CS(=O)(=O)c1ccc(-c2cn3cc(C4CCN(C5CCCN(CC6CC6)CC5)CC4)cc(F)c3n2)cc1` (single isomer, unassigned) [Example 127, 6-(1-(1-(cyclopropylmethyl)azepan-4-yl)piperidin-4-yl)-8-fluoro-2-(4-(methylsulfonyl)phenyl)imidazo[1,2-a]pyridine], the IC50 against human TLR9 was 0.0097 µM; on human TLR7 it was 1.6 µM; against human TLR8, 36 µM.
With `CS(=O)(=O)c1ccc(-c2cn3cc(C4CCN(C5CCCN(CC6CC6)CC5)CC4)cc(F)c3n2)cc1` (single isomer, unassigned) [Example 128, 6-(1-(1-(cyclopropylmethyl)azepan-4-yl)piperidin-4-yl)-8-fluoro-2-(4-(methylsulfonyl)phenyl)imidazo[1,2-a]pyridine], the IC50 is 0.0084 µM on human TLR9, 2.4 µM on human TLR7 and > 50 µM against human TLR8.
`CS(=O)(=O)c1ccc(-c2cn3cc(C4CCN(C5CCCN(C6CCOCC6)CC5)CC4)cc(F)c3n2)cc1` (single isomer, unassigned) [Example 129, 8-fluoro-2-(4-(methylsulfonyl)phenyl)-6-(1-(1-(tetrahydro-2H-pyran-4-yl)azepan-4-yl)piperidin-4-yl)imidazo[1,2-a]pyridine]: the IC50 at human TLR9 was 0.02 µM; against human TLR7 it was > 50 µM; against human TLR8, > 50 µM.
Regarding `CS(=O)(=O)c1ccc(-c2cn3cc(C4CCN(C5CCCN(C6CCOCC6)CC5)CC4)cc(F)c3n2)cc1` (single isomer, unassigned) [Example 130, 8-fluoro-2-(4-(methylsulfonyl)phenyl)-6-(1-(1-(tetrahydro-2H-pyran-4-yl)azepan-4-yl)piperidin-4-yl)imidazo[1,2-a]pyridine], the values for the IC50 against human TLR9, at human TLR7 and at human TLR8 were 0.01 µM, > 50 µM and 22.5 µM, respectively.
On to `COc1ccc(-c2cn3c(n2)CC[C@H](C2CCN(C4CC5CCC(C4)N5C(C)C)CC2)C3)cc1OC` (single isomer, unassigned) [Example 134], for which the IC50 was 0.067 µM against human TLR9, > 50 µM against human TLR7 and > 50 µM at human TLR8.
With `COc1ccc(-c2cn3c(n2)CC[C@H](C2CCN(C4CC5CCC(C4)N5C(C)C)CC2)C3)cc1OC` (single isomer, unassigned) [Example 135], the IC50 is 0.042 µM against human TLR9, 3.9 µM against human TLR7 and > 25 µM on human TLR8.
As for `COc1ccc(-c2cn3c(n2)CC[C@@H](C2CCN(C4CC5CCC(C4)N5C(C)C)CC2)C3)cc1OC` (single isomer, unassigned) [Example 136], the IC50 was 0.078 µM on human TLR9, 15.2 µM against human TLR7 and > 25 µM against human TLR8.
Turning to `COc1ccc(-c2cn3c(n2)CC[C@@H](C2CCN(C4CC5CCC(C4)N5C(C)C)CC2)C3)cc1OC` (single isomer, unassigned) [Example 137], the results for the IC50 on human TLR9, against human TLR7 and against human TLR8 were 0.046 µM, 3 µM and > 25 µM, respectively.
For `CS(=O)(=O)c1ccc(-c2cn3c(n2)CC[C@H](C2CCN(C4CC5CCC(C4)N5CC4CC4)CC2)C3)cc1` (single isomer, unassigned) [Example 138], in that order: 0.381 µM, > 50 µM and > 50 µM.

Broadly, the IC50 is the midpoint of a concentration-inhibition curve.
